Test results from patent US20220233512A1, “INHIBITING AN IMMUNE RESPONSE MEDIATED BY ONE OR MORE OF TLR2, RAGE, CCR5, CXCR4 AND CD4” (priority 2020, published 2022).

Molecular target: T1, mu opiate receptor (MOR) (Rattus norvegicus, UniProt P33535)
T1 construct: from tissue; host or cells: striatum (membrane preparation)
Assay: MOR agonist activity using [35S]GTPgS binding assay in striatal membranes
Format: biochemical
Method: To assess the mu opiate receptor (MOR) agonist activity of positive compounds from the FLNA screening, compounds were tested in a [^35S]GTPgS binding assay using striatal membranes. […] This assay measures a functional consequence of receptor occupancy at one of the earliest receptor-mediated events. The assay permits for traditional pharmacological parameters of potency, efficacy and antagonist affinity, with the advantage that agonist measures are not subjected to amplification or other modulation that may occur when analyzing parameters further downstream of the receptor.
Thus, striatal tissue was homogenized in 10 volumes of ice cold 25 mM HEPES buffer, pH 7.4, which contained 1 mM EGTA, 100 mM sucrose, 50 mg/ml leupeptin, 0.04 mM PMSF, 2 mg/ml soybean trypsin inhibitor and 0.2% 2-mercaptoethanol. The homogenates were centrifuged at 800×g for 5 minutes and the supernatants were centrifuged at 49,000×g for 20 minutes. The resulting pellets were suspended in 10 volume of reaction buffer, which contained 25 mM HEPES, pH 7.5, 100 mM NaCl, 50 mg/ml leupeptin, 2 mg/ml soybean trypsin inhibitor, 0.04 mM PMSF and 0.02% […].
The resultant striatal membrane preparation (200 mg) was admixed and maintained (incubated) at 30° C. for 5 minutes in reaction buffer as above that additionally contained 1 mM MgCl2 and 0.5 nM [^35S]GTPgS (0.1 mCi/assay, PerkinElmer Life and Analytical Sciences) in a total volume of 250 ml and continued for 5 minutes in the absence or presence of 0.1-10 mM of an assayed compound of interest. The reaction was terminated by dilution with 750 ml of ice-cold reaction buffer that contained 20 mM MgCl2 and 1 mM EGTA and immediate centrifugation at 16,000×g for 5 minutes.
The resulting pellet was solubilized by sonicating for 10 seconds in 0.5 ml of immunoprecipitation buffer containing 0.5% digitonin, 0.2% sodium cholate and 0.5% NP-40. Normal rabbit serum (1 ml) was added to 1 ml of lysate and incubated at 25° C. for 30 minutes. Nonspecific immune complexes were removed by incubation with 25 ml of protein A/G-conjugated agarose beads at 25° C. for 30 minutes followed by centrifugation at 5,000×g at 4° C. for 5 minutes. The supernatant was divided and separately incubated at 25° C. for 30 minutes with antibodies raised against Gao proteins (1:1,000 dilutions).
The immunocomplexes so formed were collected by incubation at 25° C. for 30 minutes with 40 ml of agarose-conjugated protein A/G beads and centrifugation at 5,000×g at 4° C. for 5 minutes. The pellet was washed and suspended in buffer containing 50 mM Tris-HCl, pH 8.0, and 1% NP-40. The radioactivity in the suspension was determined by liquid scintillation spectrometry. […] DAMGO (1 or 10 mM) was used as a positive control.

[1] = 0.1 μM compound as agonist, Series C-1 table
[2] = 1 μM compound as agonist, Series C-1 table
[3] = 0.1 μM compound as agonist, Series C-2 table
[4] = 1 μM compound as agonist, Series C-2 table

T1 sequence (P33535 whole entry): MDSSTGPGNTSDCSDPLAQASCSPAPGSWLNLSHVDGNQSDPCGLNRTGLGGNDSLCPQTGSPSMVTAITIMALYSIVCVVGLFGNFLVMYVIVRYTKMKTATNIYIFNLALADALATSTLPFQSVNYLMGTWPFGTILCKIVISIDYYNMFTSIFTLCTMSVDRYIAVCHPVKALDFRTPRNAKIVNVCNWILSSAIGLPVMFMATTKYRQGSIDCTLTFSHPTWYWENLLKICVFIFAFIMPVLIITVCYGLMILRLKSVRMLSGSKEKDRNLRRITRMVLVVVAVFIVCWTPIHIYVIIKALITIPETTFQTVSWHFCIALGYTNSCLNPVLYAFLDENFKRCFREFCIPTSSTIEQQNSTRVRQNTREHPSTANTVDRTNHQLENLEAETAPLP

| SMILES | MOR agonist activity ([35S]GTPgS binding to Gao) [1] [%] | MOR agonist activity ([35S]GTPgS binding to Gao) (1 μM + BFNA, Series C-1 table) [%] | MOR agonist activity ([35S]GTPgS binding to Gao) [2] [%] | MOR agonist activity ([35S]GTPgS binding to Gao) [3] [%] | MOR agonist activity ([35S]GTPgS binding to Gao) (1 μM + BFNA, Series C-2 table) [%] | MOR agonist activity ([35S]GTPgS binding to Gao) [4] [%] |
| --- | --- | --- | --- | --- | --- | --- |
| O=S(=O)(c1ccc(Br)c(C(F)(F)F)c1)N1CCC2(CC1)OCCN2S(=O)(=O)c1ccc(Br)c(C(F)(F)F)c1 [Compound C0077] | 192.7 | 136.7 | 265.4 |  |  |  |
| O=S(=O)(c1ccc(Br)cc1F)N1CCC2(CC1)OCCN2S(=O)(=O)c1ccc(Br)cc1F [Compound C0078] | 138.1 | 170.7 | 236.6 |  |  |  |
| CC(=O)c1ccc(S(=O)(=O)N2CCC3(CC2)OCC(CCCCN(C)C)N3S(=O)(=O)c2ccc(C(C)=O)cc2)cc1 (stereo not drawn) [Compound C0080] | 187.9 | 167.1 | 205.4 |  |  |  |
| CC(=O)c1ccc(S(=O)(=O)N2CCC3(CC2)NCC(=O)N3Cc2ccccc2)cc1 [Compound C0082M] | 228.1 | 97.6 | 338.4 |  |  |  |
| CC(=O)c1ccc(S(=O)(=O)N2CCC3(CC2)NC(=O)C(Cc2cnc[nH]2)N3S(=O)(=O)c2ccc(C(C)=O)cc2)cc1 (stereo not drawn) [Compound C0084M] | 163.1 | 133.2 | 255.5 |  |  |  |
| CC(=O)c1ccc(S(=O)(=O)N2CCC3(CC2)NC(=O)CN3Cc2ccccc2)cc1 [Compound C0085M] | 211.6 | 43.7 | 246.2 |  |  |  |
| CC(=O)c1ccc(S(=O)(=O)N2CC(=O)NC23CCNCC3)cc1 [Compound C0086M] |  |  |  | 206.8 | 152.3 | 265.3 |
| CC(=O)c1ccc(S(=O)(=O)N2CCC3(CC2)NC(=O)CO3)cc1 [Compound C0087M] |  |  |  | 262.8 | 142.5 | 329.6 |
| COc1ccc(S(=O)(=O)N2CCOC23CCN(C)CC3)cc1 [Compound C0088M] |  |  |  | 276.3 | 177.1 | 355.3 |
| CCN1CCC2(CC1)OCCN2S(=O)(=O)c1ccc(OC)cc1 [Compound C0089M] |  |  |  | 234.5 | 81.9 | 295.3 |
| COc1ccc(S(=O)(=O)N2CCOC23CCN(CC2CC2)CC3)cc1 [Compound C0090M] |  |  |  | 237.0 | 41.0 | 341.0 |
| C=CCN1CCC2(CC1)OCCN2S(=O)(=O)c1ccc(OC)cc1 [Compound C0091M] |  |  |  | 207.9 | 80.8 | 274.4 |
| CC(=O)c1ccc(S(=O)(=O)N2CCOC23CCN(C)CC3)cc1 [Compound C0093M] |  |  |  | 140.0 | 44.0 | 211.8 |
| CCN1CCC2(CC1)OCCN2S(=O)(=O)c1ccc(C(C)=O)cc1 [Compound C0094M] |  |  |  | 172.5 | 115.3 | 263.5 |
| CC(=O)c1ccc(S(=O)(=O)N2CCOC23CCN(CC2CC2)CC3)cc1 [Compound C0095M] |  |  |  | 189.1 | 107.7 | 224.6 |
| C=CCN1CCC2(CC1)OCCN2S(=O)(=O)c1ccc(C(C)=O)cc1 [Compound C0096M] |  |  |  | 186.4 | 127.1 | 328.9 |
| CCOC(=O)CN1CCC2(CC1)OCCN2S(=O)(=O)c1ccc(C(C)=O)cc1 [Compound C0099M] |  |  |  | 157.2 | 114.7 | 195.7 |

| SMILES | MOR agonist activity ([35S]GTPgS binding to Gao) [1] [%] | MOR agonist activity ([35S]GTPgS binding to Gao) (1 μM + BFNA, Series C-1 table) [%] | MOR agonist activity ([35S]GTPgS binding to Gao) [2] [%] | MOR agonist activity ([35S]GTPgS binding to Gao) [3] [%] | MOR agonist activity ([35S]GTPgS binding to Gao) (1 μM + BFNA, Series C-2 table) [%] | MOR agonist activity ([35S]GTPgS binding to Gao) [4] [%] |
| --- | --- | --- | --- | --- | --- | --- |
| CC(=O)c1ccc(S(=O)(=O)N2CCOC23CCN(CC(=O)O)CC3)cc1 [Compound C0100M] |  |  |  | 173.6 | 195.6 | 245.9 |
| CCCCN1CCC2(CC1)OCCN2S(=O)(=O)c1ccc(C(C)=O)cc1 [Compound C0101M] |  |  |  | 138.2 | 174.8 | 274.3 |
| CCCCN1CCC2(CC1)OCCN2S(=O)(=O)c1ccc(OC)cc1 [Compound C0102M] |  |  |  | 131.8 | 150.4 | 272.0 |
| CN1CCC2(CC1)NC(=O)CN2Cc1ccccc1 [Compound C0104M] |  |  |  | 188.2 | 143.8 | 238.9 |
| CN1CCC2(CC1)OCCN2S(=O)(=O)c1ccc(S(C)(=O)=O)cc1 [Compound C0106M] |  |  |  | 171.8 | 117.2 | 240.7 |
| CC(=O)c1ccc(S(=O)(=O)N2CC(CN(C)C)OC23CCN(C)CC3)cc1 (stereo not drawn) [Compound C0108M] |  |  |  | 205.6 | 76.9 | 258.5 |
| O=C1CNC2(CCNCC2)N1Cc1ccccc1 [Compound C0114M] |  |  |  | 114.0 | 35.9 | 144.3 |
| O=C1CN(Cc2ccccc2)C2(CCNCC2)N1 [Compound C0115M] |  |  |  | 177.2 | 118.4 | 226.8 |
| CS(=O)(=O)c1ccc(S(=O)(=O)N2CCOC23CCNCC3)cc1 [Compound C0116M] |  |  |  | 258.4 | 152.0 | 302.8 |
| CC(=O)c1ccc(S(=O)(=O)N2CC(CN(C)C)OC23CCNCC3)cc1 (stereo not drawn) [Compound C0118M] |  |  |  | 166.2 | 79.2 | 261.5 |
| CC(=O)c1ccc(S(=O)(=O)N2C(Cc3c[nH]cn3)C(=O)NC23CCNCC3)cc1 (stereo not drawn) [Compound C0119M] |  |  |  | 105.7 | 35.1 | 167.8 |
| O=C1CNC2(CCN(CC3CC3)CC2)N1Cc1ccccc1 [Compound C0124M] |  |  |  | 252.0 | 61.4 | 305.1 |
| O=C1CN(Cc2ccccc2)C2(CCN(CC3CC3)CC2)N1 [Compound C0125M] |  |  |  | 168.6 | 159.7 | 195.2 |
| CS(=O)(=O)c1ccc(S(=O)(=O)N2CCOC23CCN(CC2CC2)CC3)cc1 [Compound C0126M] |  |  |  | 181.8 | 108.5 | 265.3 |
| CC(=O)c1ccc(S(=O)(=O)N2CC(CN(C)C)OC23CCN(CC2CC2)CC3)cc1 (stereo not drawn) [Compound C0128M] |  |  |  | 197.8 | 63.9 | 286.0 |
| COc1ccc(S(=O)(=O)N2CCOC23CCN(C(C)C)CC3)cc1 [Compound C0133M] |  |  |  | 139.4 | 72.4 | 214.8 |
